Reference: patent publication US8754073B2, “Substituted piperazino-dihydrothienopyrimidines” (Boehringer Ingelheim International GmbH, priority 2007, dated 2014)
Structures can show the parent of a compound that is named as a salt.

Molecular target: PDE4B (Homo sapiens, UniProt Q07343)
Experiment: Scintillation Proximity Assay (SPA) of PDE4B enzyme activity ([H3]-cAMP cleavage)
Assay type: biochemical
Conditions: test substance 1 μM
Summary of the method: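 Percent inhibition at 1 μM compound, measured against an uninhibited reaction. PDE4B hydrolysed tritiated cAMP for one hour at 30 °C, then scintillator beads were added to capture [H3]-5′-AMP. Light events were counted after 45 min bead settling.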

[1] = one-hour incubation of [H3]-cAMP with PDE4B enzyme at 30° C.
[2] = one-hour incubation with [H3]-cAMP at 30° C.

Chain of PDE4B (Q07343 whole entry, species assumed): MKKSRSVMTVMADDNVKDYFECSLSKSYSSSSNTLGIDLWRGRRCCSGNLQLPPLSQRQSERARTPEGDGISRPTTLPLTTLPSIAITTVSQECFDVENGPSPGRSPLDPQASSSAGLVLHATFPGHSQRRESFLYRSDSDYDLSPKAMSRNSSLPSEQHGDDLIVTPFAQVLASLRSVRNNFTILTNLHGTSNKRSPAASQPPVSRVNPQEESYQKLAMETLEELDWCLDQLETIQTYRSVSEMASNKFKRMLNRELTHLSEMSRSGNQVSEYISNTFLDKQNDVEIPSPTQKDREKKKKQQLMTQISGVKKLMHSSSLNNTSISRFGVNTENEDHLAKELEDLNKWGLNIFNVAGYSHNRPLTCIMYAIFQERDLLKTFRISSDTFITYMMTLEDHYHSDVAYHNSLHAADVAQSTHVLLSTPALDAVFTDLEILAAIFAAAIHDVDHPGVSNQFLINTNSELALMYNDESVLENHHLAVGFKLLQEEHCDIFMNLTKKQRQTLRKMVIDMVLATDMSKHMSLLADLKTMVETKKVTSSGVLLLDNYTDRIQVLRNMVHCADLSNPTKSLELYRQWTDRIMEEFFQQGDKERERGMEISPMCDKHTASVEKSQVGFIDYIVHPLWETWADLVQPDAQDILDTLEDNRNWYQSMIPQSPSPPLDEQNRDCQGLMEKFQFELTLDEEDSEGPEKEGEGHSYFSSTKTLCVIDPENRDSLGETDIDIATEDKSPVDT

Structure (SMILES) | inhibition at 1 µM [1] [%] | inhibition at 1 µM [2] [%]
CC(C)(O)[C@H](Nc1nc(N2CCC(c3ccc(Cl)cc3)CC2)nc2c1[S+]([O-])CC2)c1ccc(F)cc1 (stereo partly drawn) [Example 4, (R)-1-{2-[4-(4-chlorophenyl)-piperidin-1-yl]-5-oxo-6,7-dihydro-5H-5λ^4-thieno[3,2-d]pyrimidin-4-ylamino}-1-(4-fluorophenyl)-2-methylpropan-2-ol] | 91 | –
O=C(c1cccc(C2CCN(c3nc4c(c(NC5CCOCC5)n3)[S+]([O-])CC4)CC2)c1)N(C1CCOCC1)C1CC1 (stereo not drawn) [Example 257] | – | 94
[O-][S+]1CCc2nc(N3CCC(c4ccc(C(F)(F)F)cc4)CC3)nc(NC3(CO)CC3)c21 (stereo not drawn) [Example 95, (1-{5-Oxo-2-[4-(4-Trifluoromethylphenyl)-Piperidin-1-Yl]-6,7-Dihydro-5H-5λ^4-Thieno[3,2-d]Pyrimidin-4-Ylamino}-Cyclopropyl)-Methanol] | 93 | –
[O-][S+]1CCc2nc(N3CCC(COCc4ccccc4)(c4ccc(Cl)cc4)CC3)nc(NC3CCOCC3)c21 (stereo not drawn) [Example 310] | – | 92
[O-][S+]1CCc2nc(N3CCC(c4nc(-c5ccccc5)no4)CC3)nc(NC3CCOCC3)c21 (stereo not drawn) [Example 312] | – | 92
CN1CCC(N(C)C(=O)c2ccc(OC3CCN(c4nc5c(c(NC6CCOCC6)n4)[S+]([O-])CC5)CC3)cc2)CC1 (stereo not drawn) [Example 241] | – | 93
[O-][S+]1CCc2nc(N3CCC(Oc4ccccc4Cl)CC3)nc(NC3CCOCC3)c21 (stereo not drawn) [Example 179] | – | 75
[O-][S+]1CCc2nc(N3CCC(c4c[nH]c5ccccc45)CC3)nc(NC3CCOCC3)c21 (stereo not drawn) [Example 56] | 96 | –
CN1C[C@@H](Nc2nc(N3CCC(O)(c4cc(F)cc(F)c4)CC3)nc3c2[S+]([O-])CC3)CCC1=O (stereo partly drawn) [Example 47] | 97 | –
[O-][S+]1CCc2nc(N3CCC(c4cc5ccccc5o4)CC3)nc(Nc3cccc(F)c3)c21 (stereo not drawn) [Example 141] | 97 | –
CN(C(=O)c1ccc(OC2CCN(c3nc4c(c(NC5CCOCC5)n3)[S+]([O-])CC4)CC2)cc1)C1CC1 (stereo not drawn) [Example 242, N-Cyclopropyl-N-Methyl-4-{1-[5-Oxo-4-(Tetrahydropyran-4-Ylamino)-6,7-Dihydro-5H-5λ^4-Thieno[3,2-d]Pyrimidin-2-Yl]-Piperidin-4-Yloxy}-Benzamide] | – | 94
CN1C[C@@H](Nc2nc(N3CCC(c4cccc(O)c4)CC3)nc3c2[S+]([O-])CC3)CCC1=O (stereo partly drawn) [Example 46] | 97 | –
Cc1noc(C2CCN(c3nc4c(c(NC5CCOCC5)n3)[S+]([O-])CC4)CC2)n1 (stereo not drawn) [Example 68] | 93 | –
Cn1c(C2CCN(c3nc4c(c(NC5CCOCC5)n3)[S+]([O-])CC4)CC2)nc2ccccc21 (stereo not drawn) [Example 212] | – | 93
CN1C[C@@H](Nc2nc(N3CCC(Oc4ccc(F)cc4)CC3)nc3c2[S+]([O-])CC3)CCC1=O (stereo partly drawn) [Example 169] | – | 92
[O-][S+]1CCc2nc(N3CCC(c4c[nH]c5ccccc45)CC3)nc(Nc3cccc(F)c3)c21 (stereo not drawn) [Example 71] | 96 | –
Cc1noc(C2CCN(c3nc4c(c(N[C@H]5CCC(=O)N(C)C5)n3)[S+]([O-])CC4)CC2)n1 (stereo partly drawn) [Example 53] | 96 | –
N#Cc1ccc(OC2CCN(c3nc4c(c(NC5(CO)CC5)n3)[S+]([O-])CC4)CC2)cc1 (stereo not drawn) [Example 322] | – | 91
CCN1CCc2ccc(OC3CCN(c4nc5c(c(NC6CCOCC6)n4)[S+]([O-])CC5)CC3)cc2CC1 (stereo not drawn) [Example 234] | – | 95
[O-][S+]1CCc2nc(N3CCC(c4nc(-c5cccnc5)no4)CC3)nc(NC3CCOCC3)c21 (stereo not drawn) [Example 131] | 94 | –
CN1C[C@@H](Nc2nc(N3CCC(c4noc5ccccc45)CC3)nc3c2[S+]([O-])CC3)CCC1=O (stereo partly drawn) [Example 45] | 97 | –
Cc1nn(C)c(C)c1CNC(=O)c1ccc(OC2CCN(c3nc4c(c(NC5CCOCC5)n3)[S+]([O-])CC4)CC2)cc1 (stereo not drawn) [Example 243] | – | 94
[O-][S+]1CCc2nc(N3CCC(c4cc(Cl)cc(Cl)c4)CC3)nc(NC3CCOCC3)c21 (stereo not drawn) [Example 97, {2-[4-(3,5-Dichlorophenyl)-Piperidin-1-Yl]-5-Oxo-6,7-Dihydro-5H-5λ^4-Thieno[3,2-d]Pyrimidin-4-Yl}-(Tetrahydropyran-4-Yl)-Amine] | 93 | –
[O-][S+]1CCc2nc(N3CCC(c4ccccc4F)CC3)nc(NC3CCOCC3)c21 (stereo not drawn) [Example 88] | 92 | –
[O-][S+]1CCc2nc(N3CCC(c4ccncc4)CC3)nc(Nc3cccc(F)c3)c21 (stereo not drawn) [Example 78, (3-Fluorophenyl)-[5-Oxo-2-(3.4.5.6-Tetrahydro-2H-[4,4′]Bipyridinyl-1-Yl)-6,7-Dihydro-5H-5λ^4-Thieno[3,2-d]Pyrimidin-4-Yl]-Amine Trifluoroacetate] | 96 | –

Now from value to molecule:

inhibition at 1 µM [1] [%] | inhibition at 1 µM [2] [%] | Structure (SMILES)
74 | – | [O-][S+]1CCc2nc(N3CCC4(CC3)OCc3ccccc34)nc(NC3CCOCC3)c21 (stereo not drawn) [Example 125]
97 | – | [O-][S+]1CCc2nc(N3CCC(c4cc5ccccc5o4)CC3)nc(NC3(CO)CC3)c21 (stereo not drawn) [Example 110]
– | 88 | COC1(c2ccc(Cl)cc2)CCN(c2nc3c(c(NC4(CO)CC4)n2)[S+]([O-])CC3)CC1 (stereo not drawn) [Example 314]
90 | – | CC(C)[C@H](CO)Nc1nc(N2CCC(C#N)(c3ccccc3)CC2)nc2c1[S+]([O-])CC2 (stereo partly drawn) [Example 25]
67 | – | CC(C)[C@H](CO)Nc1nc(N2CCC3(CC2)CN(S(C)(=O)=O)c2ccccc23)nc2c1[S+]([O-])CC2 (stereo partly drawn) [Example 15]
83 | – | CC(C)[C@H](CO)Nc1nc(N2CCC3(CC2)OC(=O)Nc2ccccc23)nc2c1[S+]([O-])CC2 (stereo partly drawn) [Example 21]
– | 91 | [O-][S+]1CCc2nc(N3CCC(OCc4ccccc4)(c4ccc(Cl)cc4)CC3)nc(NC3CCOCC3)c21 (stereo not drawn) [Example 319]
83 | – | [O-][S+]1CCc2nc(N3CCC4(CC3)OCc3ccccc34)nc(Nc3cccc(F)c3)c21 (stereo not drawn) [Example 140]
– | 95 | CC(C)c1ccccc1OC1CCN(c2nc3c(c(NC4CCOCC4)n2)[S+]([O-])CC3)CC1 (stereo not drawn) [Example 272]
94 | – | [O-][S+]1CCc2nc(N3CCC(c4ccc(F)cc4)CC3)nc(NC3(CO)CC3)c21 (stereo not drawn) [Example 11]
96 | – | CN1C[C@@H](Nc2nc(N3CCC(C#N)(c4ccccc4)CC3)nc3c2[S+]([O-])CC3)CCC1=O (stereo partly drawn) [Example 55, 1-[4-((S)-1-Methyl-6-Oxopiperidin-3-Ylamino)-5-Oxo-6,7-Dihydro-5H-5λ^4-Thieno[3,2-d]Pyrimidine-2-Yl]-4-Phenylpiperidine-4-Carbonitrile]
96 | – | [O-][S+]1CCc2nc(N3CCC(c4ccc5ccccc5c4)CC3)nc(NC3(CO)CC3)c21 (stereo not drawn) [Example 111]
– | 93 | N#CC1(c2ccc(F)cc2)CCN(c2nc3c(c(NC4(CO)CC4)n2)[S+]([O-])CC3)CC1 (stereo not drawn) [Example 295]
– | 89 | Cc1nc(C2CCN(c3nc4c(c(NC5(CO)CC5)n3)[S+]([O-])CC4)CC2)oc1-c1ccc(Cl)cc1 (stereo not drawn) [Example 283, [1-(2-{4-[5-(4-chlorophenyl)-4-methyloxazol-2-yl]-piperidin-1-yl}-5-oxo-6,7-dihydro-5H-5λ^4-thieno[3,2-d]pyrimidin-4-ylamino)-cyclopropyl]-methanol]
85 | – | CN1C(=O)Nc2ccccc2C12CCN(c1nc3c(c(NC4(CO)CC4)n1)[S+]([O-])CC3)CC2 (stereo not drawn) [Example 28, 1-(4-(1-Hydroxymethylcyclopropylamino)-5-Oxo-6,7-Dihydro-5H-5λ^4-Thieno[3,2-d]Pyrimidin-2-Yl)-3′-Methyl-1′H-Spiro[Piperidin-4,4′-Quinazolin]-2′(3′H)-One]
– | 83 | CC(C)[C@H](CO)Nc1nc(N2CCC(c3cc(-c4cccs4)[nH]n3)CC2)nc2c1[S+]([O-])CC2 (stereo partly drawn) [Example 292]
94 | – | CC(C)[C@H](CO)Nc1nc(N2CCC(c3nc4cc(Cl)ccc4s3)CC2)nc2c1[S+]([O-])CC2 (stereo partly drawn) [Example 149]
– | 87 | CS(=O)(=O)NCC1(c2ccccc2)CCN(c2nc3c(c(NC4CCOCC4)n2)[S+]([O-])CC3)CC1 (stereo not drawn) [Example 325]
94 | – | CC(C)[C@H](CO)Nc1nc(N2CCC(c3cc(-c4ccco4)n[nH]3)CC2)nc2c1[S+]([O-])CC2 (stereo partly drawn) [Example 161, (R)-2-{2-[4-(5-Furan-2-Yl-2H-Pyrazol-3-Yl)-Piperidin-1-Yl]-5-Oxo-6,7-Dihydro-5H-5λ^4-Thieno[3,2-d]Pyrimidin-4-Ylamino}-3-Methylbutan-1-Ol Trifluoroacetate]
– | 91 | [O-][S+]1CCc2nc(N3CCC(c4nc(-c5ccccc5)no4)CC3)nc(NC3(CO)CC3)c21 (stereo not drawn) [Example 311]
– | 89 | COC1(c2ccc(Cl)cc2)CCN(c2nc3c(c(N[C@@H](CO)C(C)C)n2)[S+]([O-])CC3)CC1 (stereo partly drawn) [Example 315]
96 | – | N#CC1(c2ccccc2)CCN(c2nc3c(c(Nc4cccc(F)c4)n2)[S+]([O-])CC3)CC1 (stereo not drawn) [Example 85]
94 | – | CC(C)[C@H](CO)Nc1nc(N2CCC(c3ccc(C#N)cc3)CC2)nc2c1[S+]([O-])CC2 (stereo partly drawn) [Example 20]
60 | – | CC(C)[C@H](CO)Nc1nc(N2CCC3(CC2)c2ccccc2NC(=O)N3C)nc2c1[S+]([O-])CC2 (stereo partly drawn) [Example 14, (R)-1-(4-(1-Hydroxy-3-Methylbutan-2-Ylamino)-5-Oxo-6,7-Dihydro-5H-5λ^4-Thieno[3,2-d]Pyrimidin-2-Yl)-3′-Methyl-1′H-Spiro[Piperidin-4,4′-Quinazolin]-2′(3′H)-One]
– | 92 | [O-][S+]1CCc2nc(N3CCC(CO)(c4ccc(Cl)cc4)CC3)nc(NC3(CO)CC3)c21 (stereo not drawn) [Example 301]
– | 89 | CC(C)[C@H](CO)Nc1nc(N2CCC(COCc3ccccc3)(c3ccc(Cl)cc3)CC2)nc2c1[S+]([O-])CC2 (stereo partly drawn) [Example 307]
